Test results reported in publication PMC11928584, “H105A peptide eye drops promote photoreceptor survival in murine and human models of retinal degeneration” (Communications Medicine, 2025).
“And” between values parts separate entries of the source, which are not always exact repeats. Identical values can stand only once. Where a SMILES comes first, the peptide text is derived from it.

Tests used:
[1] = system: photoreceptors of rd10 mice; test: PSVue-550 fluorescence fundoscopy of photoreceptor cell death (PS externalization); assay type: in vivo, mouse; settings: daily eye drops 5 µl of 1 mg/ml from P15, PSVue-550 fundoscopy P21
Description: (§1) Fluorescence fundoscopy with a cell death probe was chosen as a simple method for monitoring photoreceptor cell death in alive animals. A fluorescent probe, bis (zinc^2+-dipicolylamine)-550, (PSVue®-550) (Molecular Targeting Technologies Inc, cat. P-1005) was reconstituted in Hanks’ Balanced Salt Solution (HBSS, Quality Biological, cat. 114-062-101) according to the manufacturer’s instructions[28],[36]. This probe is suitable for in vivo use to specifically and transiently label dying photoreceptors, such as in living rats with retinal degeneration the Royal College of Surgeons rat model, in a non-invasive and non-toxic method without the need of intraocular injection. Briefly, a stock of 1 mM solution of PSVue®-550 was stored in the dark at 4 °C and used within 14 days directly as eye drop. After 3-4 h of light onset each mouse received eye drops of 5–10 μl of 1 mM PSVue®-550 in the left eye and HBSS in the right eye as control. The eye drop volume was chosen such that the eye cavity was filled without spillage outside the eye, and it was modified depending on eye size. […] To obtain in vivo retinal images of fundi, at 24 h after the probe was administered, the mice were anesthetized, and pupils were dilated with 1% tropicamide for 5 min and kept hydrated with GenTeal. Fluorescence was imaged using a retinal imaging microscope (Micron III, Phoenix Research Labs) using an FF02- 475/50 nm excitation filter (Semrock, Inc.). We observed some variability in optic nerve (ON) fluorescence that could not be readily explained, so the optic nerve was excluded from analyses in all samples.
(§2) To determine the natural history of photoreceptor death of rd10 and rd10/Serpinf1^-/- mice, we assessed photoreceptor cell death in live mice using the fluorescent probe termed PSVue® 550 to monitor PS externalization by fluorescence fundoscopy (Supplementary Fig. 2). Given the reports about the retinas of rd10 mice starting to show histological changes at P16, and with a peak in the number of TUNEL+ nuclei in the ONL at P17-18[13], we monitored PS externalization in photoreceptors of these mice undergoing degeneration before death onset. Eye drops of 1 mM PSVue® 550 solution in HBSS were administered to left eyes and HBSS (vehicle) to their contralateral right eyes of each mouse at ages P16, P20, P22 or P24. PS externalization was determined by fluorescence fundoscopy 24 h post-administration. PSVue labeling of phosphatidylserine (PS) externalization associated with photoreceptor cell death in the rd10 retina (Supplementary Figs. 2, 3).
(§3) Fig. 2 Effect of PEDF peptide eye drops on protection against photoreceptor cell death in rd10 and rd10/Serpinf1^-/- mice. a Illustration of the experimental timeline of peptide application. Eye drops containing 5 µl of 17-mer, H105A, or R99A peptides in HBSS were administered daily to eyes of rd10 and rd10/Serpinf1^-/- mice from P15 to P20. Vehicle (HBSS) was applied in contralateral eyes. At P20, PSVue® was applied via eye drops, and fluorescence fundoscopy was conducted at P21 to assess photoreceptor cell death. RE and LE refer to the right and left eyes, respectively. b Fluorescence fundoscopy micrographs. Representative fluorescence fundoscopy images of retinas from mice treated as in Panel a with eyedrops of 1 mg/ml of each peptide. Quantification of fluorescence intensity was performed using ImageJ, with average intensity values corrected for background fluorescence from eyes that had not received PSVue or peptides. Each line represents data from one animal comparing treated and contralateral eyes, with five eyes (n = 5) per condition. Statistical significance was determined by paired t-test (****p ≤ 0.0001, and ns > 0.05). Scale bar = 0.5 mm. c Dose response of peptide eye drops. Representative fluorescence fundoscopy micrographs showing retinas treated with varying concentrations of 17-mer and H105A peptides (0.0 mg/ml to 1.0 mg/ml) in rd10 and rd10/Serpinf1^-/- mice. […]

[2] = system: photoreceptors of rd10/Serpinf1-/- mice; test: as above; assay type: in vivo, mouse; settings: daily eye drops 5 µl of 1 mg/ml from P15, PSVue-550 fundoscopy P21
Description: as §1, §2, §3

[3] = system: human iPSC-derived retinal organoids exposed to CSE; test: TUNEL staining of retinal organoid sections; assay type: cell-based; settings: Figure 8f, individual values, n=5
Procedure: Human iPSCs were differentiated into retinal organoids (ROs) following the protocol by Zhong et al.[41]. Briefly, on Day 0, hiPSC colonies were dissociated with dispase and grown in a suspension to form embryoid bodies, and slowly transitioned to neural induction media (DMEM/F12 (1:1), 1% N2 supplement (Invitrogen), 1 x minimum essential media-nonessential amino acids (NEAAs), 2 µg/ml heparin (Sigma)). On Day 7, EBs were seeded on Matrigel coated plates and maintained in neural induction media. On Day 16, the media was switched to the retinal differentiation medium (DMEM/F12 (3:1), 2% B27 (without vitamin A, Invitrogen), 1x NEAA and 1% antibiotic–antimycotic (Gibco)). Retinal domains were identified and lifted manually with tungsten needles between Day 21 and Day 26 under a phase contrast microscope. On day 30, the culture medium was transitioned to DMEM/F12 (3:1) with 2% B27, 1x NEAA, 1% antibiotic–antimycotic, 10% fetal bovine serum (FBS; Gibco), […] Taurine (Sigma), and 2 mM GlutaMAX (Invitrogen). Additionally, 1 µM retinoic acid supplement was introduced daily starting from day 63. On day 91, the medium was modified to DMEM/F12 (1:1) supplemented with 1% N2, 1 x NEAAs, 1% antibiotic–antimycotic, 10% FBS, […] Taurine and 2 mM GlutaMAX, and the concentration of retinoic acid supplementation was reduced to 0.5 µM for the remainder of the culture period. The use of hiPSCs in this study conforms to the University of Colorado Institutional Biosafety Committee standards. […]
D180 ROs were treated with each of the 5 experimental conditions, as described above (n = 5 for each condition), washed with PBS three times, and fixed with 4% paraformaldehyde for 10 min at room temperature. […] Fluorescence images were acquired with a Nikon C2 Confocal Microscope A1 (Minato City, Tokyo, Japan) and stitched together using Nikon Elements Software. Images were analysed with Fiji. The relative area of positive immunostaining was calculated as a percentage of total retinal area. […]

Structure (SMILES)	PS externalization / photoreceptor cell death vs vehicle [1]	PS externalization / photoreceptor cell death vs vehicle [2]	Relative TUNEL(+) area ([3]; CSE + peptide 1nM)	Relative TUNEL(+) area ([3]; CSE + peptide 20nM)
CC[C@H](C)[C@H](NC(=O)[C@H](CC(=O)O)NC(=O)[C@@H]1CCCN1C(=O)[C@H](CO)NC(=O)[C@H](CO)NC(=O)[C@@H](NC(=O)[C@H](CC(C)C)NC(=O)[C@H](CC(=O)O)NC(=O)[C@H](Cc1ccc(O)cc1)NC(=O)[C@H](Cc1ccc(O)cc1)NC(=O)[C@H](CC(C)C)NC(=O)[C@H](C)NC(=O)[C@H](CCCNC(=N)N)NC(=O)[C@H](C)NC(=O)[C@@H](NC(=O)[C@@H](NC(=O)[C@H](CO)NC(=O)[C@H](CCC(=O)O)NC(=O)[C@@H](NC(=O)[C@H](CCCNC(=N)N)NC(=O)[C@H](CCC(N)=O)NC(=O)[C@H](CCC(=O)O)NC(=O)[C@H](C)NC(=O)CNC(=O)[C@H](CC(C)C)NC(=O)[C@@H](N)CO)[C@@H](C)O)[C@@H](C)CC)[C@@H](C)CC)[C@@H](C)CC)C(=O)N[C@@H](Cc1c[nH]cn1)C(=O)NCC(=O)N[C@H](C(=O)O)[C@@H](C)O [29-mer[H105A]] (H-SLGAEQRTESIIARALYYDLISSPDIHGT-OH)	no reduction in photoreceptor cell death	no reduction in photoreceptor cell death		
CC[C@H](C)[C@H](NC(=O)[C@H](CC(C)C)NC(=O)[C@H](CC(=O)O)NC(=O)[C@H](Cc1ccc(O)cc1)NC(=O)[C@H](Cc1ccc(O)cc1)NC(=O)[C@H](CC(C)C)NC(=O)[C@H](C)NC(=O)[C@H](CCCNC(=N)N)NC(=O)[C@H](C)NC(=O)[C@@H](NC(=O)[C@@H](NC(=O)[C@H](CO)NC(=O)[C@H](CCC(=O)O)NC(=O)[C@@H](NC(=O)[C@H](CCCNC(=N)N)NC(=O)[C@@H](N)CCC(N)=O)[C@@H](C)O)[C@@H](C)CC)[C@@H](C)CC)C(=O)N[C@@H](CO)C(=O)O [H150A] (H-QRTESIIARALYYDLIS-OH)			2.16 and 2.78 and 3.68 and 2.70 and 2.54	1.75 and 2.66 and 2.53 and 2.94 and 1.87
CC[C@H](C)[C@H](NC(=O)[C@H](CC(=O)O)NC(=O)[C@@H]1CCCN1C(=O)[C@H](CO)NC(=O)[C@H](CO)NC(=O)[C@@H](NC(=O)[C@H](CC(C)C)NC(=O)[C@H](CC(=O)O)NC(=O)[C@H](Cc1ccc(O)cc1)NC(=O)[C@H](Cc1ccc(O)cc1)NC(=O)[C@H](CC(C)C)NC(=O)[C@H](C)NC(=O)[C@H](CCCNC(=N)N)NC(=O)[C@H](Cc1c[nH]cn1)NC(=O)[C@@H](NC(=O)[C@@H](NC(=O)[C@H](CO)NC(=O)[C@H](CCC(=O)O)NC(=O)[C@@H](NC(=O)[C@H](CCCNC(=N)N)NC(=O)[C@H](CCC(N)=O)NC(=O)[C@H](CCC(=O)O)NC(=O)[C@H](C)NC(=O)CNC(=O)[C@H](CC(C)C)NC(=O)[C@@H](N)CO)[C@@H](C)O)[C@@H](C)CC)[C@@H](C)CC)[C@@H](C)CC)C(=O)N[C@@H](Cc1c[nH]cn1)C(=O)NCC(=O)N[C@H](C(=O)O)[C@@H](C)O [29-mer] (H-SLGAEQRTESIIHRALYYDLISSPDIHGT-OH)	no reduction in photoreceptor cell death	no reduction in photoreceptor cell death		
